In US20250154138A1, “Small Molecule IL-17A Modulators” (BeiGene, Ltd., priority 2022, published 2025):
pIC50: −log10 of the molar value.

Assays:
[1] = system: IL-17-induced GROα secretion from HT-29 cells; assay: GROα release assay in human colorectal adenocarcinoma epithelial cell (HT-29, ELISA); format: cell-based; settings: Homo sapiens, HT-29, 48 h, 10 ng/mL IL-17A, highest concentration 10 μM, read-out: Cellular assay HT29 cell/CXCL1 IC50
Outline: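 HT-29 cells were exposed 48 h at 37°C to IL-17A (final 10 ng/mL) preincubated 15 min with compound (4-fold dilutions, top 10 μM). Secreted GROα was quantified by ELISA against a standard curve, and IC50 obtained by four-parameter fitting.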

[2] = target: human IL-17A / human IL-17RA (Homo sapiens (Human), UniProt Q16552); assay: Human IL-17A biochemical assay (HTRF, blocking of IL-17A binding to IL-17RA); settings: 0.4 nM IL-17A, 0.3 nM IL-17RA, max compound concentration 10 uM
Chain of human IL-17A / human IL-17RA (Q16552 24-155): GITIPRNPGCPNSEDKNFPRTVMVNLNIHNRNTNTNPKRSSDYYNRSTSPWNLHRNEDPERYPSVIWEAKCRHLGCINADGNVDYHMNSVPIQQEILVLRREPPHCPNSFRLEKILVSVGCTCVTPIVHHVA
Outline: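 Recombinant human IL-17A (0.4 nM) was pre-incubated with compound (top 10 uM, 2.7-fold, 10 points) for 3 h at room temperature in 20 mM HEPES pH 7.5, 50 mM NaCl, 0.1% BSA, 0.2 mM DTT, 0.005% Tween 20. IL-17RA (0.3 nM) was then added for 1 h, followed by anti-6His Tb and anti-human IgG-XL665 detection for 1 h; IC50 from four-parameter fit.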

Compound | pIC50 [1] | pIC50 [2]
Cc1nonc1C(=O)N[C@H](C(=O)Nc1ccc2c(c1)OC(CN1C[C@@H](C(C)C)NC1=O)C2)C(C1CC1)C1CC1 (stereo partly drawn) [Example 271, N-((2S)-1,1-dicyclopropyl-3-((2-(((R)-4-isopropyl-2-oxoimidazolidin-1-yl)methyl)-2,3-dihydrobenzofuran-6-yl)amino)-3-oxopropan-2-yl)-4-methyl-1,2,5-oxadiazole-3-carboxamide] | 5.86 | 6.57
Cc1nonc1C(=O)N[C@H](C(=O)Nc1ccc2c(c1)CC(C(=O)Nc1ccccc1C(F)(F)F)(N1C[C@@H](C(C)C)NC1=O)C2)C(C1CC1)C1CC1 (stereo partly drawn) [Example 272, N-((2S)-1,1-dicyclopropyl-3-((2-((R)-4-isopropyl-2-oxoimidazolidin-1-yl)-2-((2-(trifluoromethyl)phenyl)carbamoyl)-2,3-dihydro-1H-inden-5-yl)amino)-3-oxopropan-2-yl)-4-methyl-1,2,5-oxadiazole-3-carboxamide] | 6.19 | 6.53
Cc1nonc1C(=O)N[C@H](C(=O)Nc1ccc2c(c1)CC(C(=O)NC1CC1(F)F)(N1C[C@@H](C(C)C)NC1=O)C2)C(C1CC1)C1CC1 (stereo partly drawn) [Example 273, N-((2S)-1,1-dicyclopropyl-3-((2-((2,2-difluorocyclopropyl)carbamoyl)-2-((R)-4-isopropyl-2-oxoimidazolidin-1-yl)-2,3-dihydro-1H-inden-5-yl)amino)-3-oxopropan-2-yl)-4-methyl-1,2,5-oxadiazole-3-carboxamide] | 7.18 | 7.46
Cc1nonc1C(=O)N[C@H](C(=O)Nc1ccc2c(c1)CC(C(=O)Nc1cnccc1Cl)(N1C[C@@H](C(C)C)NC1=O)C2)C(C1CC1)C1CC1 (stereo partly drawn) [Example 274, N-((2S)-1-((2-((4-chloropyridin-3-yl)carbamoyl)-2-((R)-4-isopropyl-2-oxoimidazolidin-1-yl)-2,3-dihydro-1H-inden-5-yl)amino)-3,3-dicyclopropyl-1-oxopropan-2-yl)-4-methyl-1,2,5-oxadiazole-3-carboxamide] | 7.17 | 7.37
Cc1nonc1C(=O)N[C@H](C(=O)Nc1ccc2c(c1)CC(C(=O)Nc1c(F)cccc1Cl)(N1C[C@@H](C(C)C)NC1=O)C2)C(C1CC1)C1CC1 (stereo partly drawn) [Example 275, N-((2S)-1-((2-((2-chloro-6-fluorophenyl)carbamoyl)-2-((R)-4-isopropyl-2-oxoimidazolidin-1-yl)-2,3-dihydro-1H-inden-5-yl)amino)-3,3-dicyclopropyl-1-oxopropan-2-yl)-4-methyl-1,2,5-oxadiazole-3-carboxamide] | 6.87 | 7.21
Cc1nonc1C(=O)N[C@H](C(=O)Nc1ccc2c(c1)OC(C(C)N1C[C@@H](C(F)(F)F)NC1=O)C2)C(C1CC1)C1CC1 (stereo partly drawn) [Example 276, N-((2S)-1,1-dicyclopropyl-3-oxo-3-((2-(1-((S)-2-oxo-4-(trifluoromethyl)imidazolidin-1-yl)ethyl)-2,3-dihydrobenzofuran-6-yl)amino)propan-2-yl)-4-methyl-1,2,5-oxadiazole-3-carboxamide] | 5.83 | 6.24
CC(C1Cc2ccc(NC(=O)[C@@H](NC(=O)c3ccnn3C(C)C)C(C3CC3)C3CC3)cc2O1)N1C[C@@H](C(F)(F)F)NC1=O (stereo partly drawn) [Example 277, N-((2S)-1,1-dicyclopropyl-3-oxo-3-((2-(1-((S)-2-oxo-4-(trifluoromethyl)imidazolidin-1-yl)ethyl)-2,3-dihydrobenzofuran-6-yl)amino)propan-2-yl)-1-isopropyl-1H-pyrazole-5-carboxamide] | 5.89 | 6.25
Cc1nonc1C(=O)N[C@H](C(=O)Nc1ccc2c(c1)CC(C(=O)Nc1cc(F)ccc1Cl)(N1C[C@@H](C(C)C)NC1=O)C2)C(C1CC1)C1CC1 (stereo partly drawn) [Example 278, N-((2S)-1-((2-((2-chloro-5-fluorophenyl)carbamoyl)-2-((R)-4-isopropyl-2-oxoimidazolidin-1-yl)-2,3-dihydro-1H-inden-5-yl)amino)-3,3-dicyclopropyl-1-oxopropan-2-yl)-4-methyl-1,2,5-oxadiazole-3-carboxamide] | 6.91 | 6.48
Cc1nonc1C(=O)N[C@H](C(=O)Nc1ccc2c(c1)CC(N1CC(C(F)(F)F)NC1=O)(C(C)(C)O)C2)C(C1CC1)C1CC1 (stereo partly drawn) [Example 279, N-((2S)-1,1-dicyclopropyl-3-((2-(2-hydroxypropan-2-yl)-2-(2-oxo-4-(trifluoromethyl)imidazolidin-1-yl)-2,3-dihydro-1H-inden-5-yl)amino)-3-oxopropan-2-yl)-4-methyl-1,2,5-oxadiazole-3-carboxamide] | 7.16 | 7.19
Cc1nonc1C(=O)N[C@H](C(=O)Nc1ccc2c(c1)CC(C(=O)NC1CCOC1)(N1C[C@@H](C(C)C)NC1=O)C2)C(C1CC1)C1CC1 (stereo partly drawn) [Example 280, N-((2S)-1,1-dicyclopropyl-3-((2-((R)-4-isopropyl-2-oxoimidazolidin-1-yl)-2-((tetrahydrofuran-3-yl)carbamoyl)-2,3-dihydro-1H-inden-5-yl)amino)-3-oxopropan-2-yl)-4-methyl-1,2,5-oxadiazole-3-carboxamide] | 7.32 | 7.76
Cc1nonc1C(=O)N[C@H](C(=O)Nc1ccc2c(c1)CC(C(=O)NC(C1CC1)C1CC1)(N1C[C@@H](C(C)C)NC1=O)C2)C(C1CC1)C1CC1 (stereo partly drawn) [Example 281, N-((2S)-1,1-dicyclopropyl-3-((2-((dicyclopropylmethyl)carbamoyl)-2-((R)-4-isopropyl-2-oxoimidazolidin-1-yl)-2,3-dihydro-1H-inden-5-yl)amino)-3-oxopropan-2-yl)-4-methyl-1,2,5-oxadiazole-3-carboxamide] | 7.17 | 7.78
Cc1nonc1C(=O)N[C@H](C(=O)Nc1ccc2c(c1)CC(C(=O)NC1CCCC1)(N1C[C@@H](C(C)C)NC1=O)C2)C(C1CC1)C1CC1 (stereo partly drawn) [Example 282, N-((2S)-1-((2-(cyclopentylcarbamoyl)-2-((R)-4-isopropyl-2-oxoimidazolidin-1-yl)-2,3-dihydro-1H-inden-5-yl)amino)-3,3-dicyclopropyl-1-oxopropan-2-yl)-4-methyl-1,2,5-oxadiazole-3-carboxamide] | 7.02 | 7.47
Cc1nonc1C(=O)N[C@H](C(=O)Nc1ccc2c(c1)CC(C(=O)Nc1ccccc1C#N)(N1C[C@@H](C(C)C)NC1=O)C2)C(C1CC1)C1CC1 (stereo partly drawn) [Example 283, N-((2S)-1-((2-((2-cyanophenyl)carbamoyl)-2-((R)-4-isopropyl-2-oxoimidazolidin-1-yl)-2,3-dihydro-1H-inden-5-yl)amino)-3,3-dicyclopropyl-1-oxopropan-2-yl)-4-methyl-1,2,5-oxadiazole-3-carboxamide] | 7.46 | 7.49
Cc1nonc1C(=O)N[C@H](C(=O)Nc1ccc2c(c1)CC(C(=O)Nc1ccncc1Cl)(N1C[C@@H](C(C)C)NC1=O)C2)C(C1CC1)C1CC1 (stereo partly drawn) [Example 284, N-((2S)-1-((2-((3-chloropyridin-4-yl)carbamoyl)-2-((R)-4-isopropyl-2-oxoimidazolidin-1-yl)-2,3-dihydro-1H-inden-5-yl)amino)-3,3-dicyclopropyl-1-oxopropan-2-yl)-4-methyl-1,2,5-oxadiazole-3-carboxamide] | 6.45 | 6.57
Cc1nonc1C(=O)N[C@H](C(=O)Nc1ccc2c(c1)CC(C(=O)Nc1cncs1)(N1C[C@@H](C(C)C)NC1=O)C2)C(C1CC1)C1CC1 (stereo partly drawn) [Example 285, N-((2S)-1,1-dicyclopropyl-3-((2-((R)-4-isopropyl-2-oxoimidazolidin-1-yl)-2-(thiazol-5-ylcarbamoyl)-2,3-dihydro-1H-inden-5-yl)amino)-3-oxopropan-2-yl)-4-methyl-1,2,5-oxadiazole-3-carboxamide] | 7.04 | 7.15
CC(C)[C@@H]1CN(CC2Cc3ccc(NC(=O)[C@@H](NC(=O)c4ccnn4C(C)C)C(C4CC4)C4CC4)cc3N2)C(=O)N1 (stereo partly drawn) [Example 286, N-((2S)-1,1-dicyclopropyl-3-((2-(((R)-4-isopropyl-2-oxoimidazolidin-1-yl)methyl)indolin-6-yl)amino)-3-oxopropan-2-yl)-1-isopropyl-1H-pyrazole-5-carboxamide] | 6.37 | 6.84
CC(C)[C@@H]1CN(CC2Cc3ccc(NC(=O)[C@@H](NC(=O)c4ccnn4C(C)C)C(C4CC4)C4CC4)cc3N2C)C(=O)N1 (stereo partly drawn) [Example 287, N-((2S)-1,1-dicyclopropyl-3-((2-(((R)-4-isopropyl-2-oxoimidazolidin-1-yl)methyl)-1-methylindolin-6-yl)amino)-3-oxopropan-2-yl)-1-isopropyl-1H-pyrazole-5-carboxamide] | 6.65 | 7.21
Cc1nonc1C(=O)N[C@H](C(=O)Nc1ccc2c(c1)CC(C(=O)Nc1ccccc1C(C)C)(N1C[C@@H](C(C)C)NC1=O)C2)C(C1CC1)C1CC1 (stereo partly drawn) [Example 288, N-((2S)-1,1-dicyclopropyl-3-((2-((R)-4-isopropyl-2-oxoimidazolidin-1-yl)-2-((2-isopropylphenyl)carbamoyl)-2,3-dihydro-1H-inden-5-yl)amino)-3-oxopropan-2-yl)-4-methyl-1,2,5-oxadiazole-3-carboxamide] | 6.39 | 6.96
CCc1ccccc1NC(=O)C1(N2C[C@@H](C(C)C)NC2=O)Cc2ccc(NC(=O)[C@@H](NC(=O)c3nonc3C)C(C3CC3)C3CC3)cc2C1 (stereo partly drawn) [Example 289, N-((2S)-1,1-dicyclopropyl-3-((2-((2-ethylphenyl)carbamoyl)-2-((R)-4-isopropyl-2-oxoimidazolidin-1-yl)-2,3-dihydro-1H-inden-5-yl)amino)-3-oxopropan-2-yl)-4-methyl-1,2,5-oxadiazole-3-carboxamide] | 7.09 | 7.61
